Consider 23 molecules from patent publication US10358446B2, “Bruton's tyrosine kinase inhibitors” (Zibo Biopolar Changsheng Pharmaceutical Co. Ltd., priority 2015, dated 2019).

The target of the experiment is BTK (Homo sapiens (Human), UniProt Q06187). As to the kind of experiment: Btk kinase assay (HTRF). In kind it is biochemical. The note with it: [ATP]=80 μM, BTK=3.4 nM; read-out: BTK Inhibition. Put shortly: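 HTRF kinase read-out (665/615 nm ratio, excitation 330 nm) after EDTA quench and 1 h detection incubation. Reaction: 3.4 nM BTK, ATP 80 μM, peptide substrate 1 μM, compound, HEPES pH 7.0 buffer, 1 h; IC50 derived using uninhibited and enzyme-free controls.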
Chain of BTK (Q06187 whole entry, species assumed): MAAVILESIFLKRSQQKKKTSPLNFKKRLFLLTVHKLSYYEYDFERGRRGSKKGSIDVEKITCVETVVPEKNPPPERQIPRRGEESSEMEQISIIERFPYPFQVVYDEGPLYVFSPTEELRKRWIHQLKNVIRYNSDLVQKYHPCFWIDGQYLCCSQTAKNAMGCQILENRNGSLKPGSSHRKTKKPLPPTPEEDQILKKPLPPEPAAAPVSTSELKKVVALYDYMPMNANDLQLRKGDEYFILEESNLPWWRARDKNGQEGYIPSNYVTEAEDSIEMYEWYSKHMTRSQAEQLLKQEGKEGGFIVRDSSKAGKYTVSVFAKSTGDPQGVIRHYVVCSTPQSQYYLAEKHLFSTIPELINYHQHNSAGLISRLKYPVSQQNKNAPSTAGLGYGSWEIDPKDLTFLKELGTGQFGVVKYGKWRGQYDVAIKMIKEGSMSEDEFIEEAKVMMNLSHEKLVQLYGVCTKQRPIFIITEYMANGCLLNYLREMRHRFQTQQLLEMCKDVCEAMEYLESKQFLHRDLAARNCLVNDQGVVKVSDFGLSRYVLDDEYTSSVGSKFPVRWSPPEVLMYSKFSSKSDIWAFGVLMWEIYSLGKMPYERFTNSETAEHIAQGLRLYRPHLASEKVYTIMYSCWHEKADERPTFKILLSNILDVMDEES
As to `C=CC(=O)N1CC[C@@H](n2c(=O)n(-c3ccc(Oc4cccc(Cl)c4OC)cc3)c3cnccc32)C1` [Example 63, (R)-1-(1-acryloylpyrrolidin-3-yl)-3-(4-(3-chloro-2-methoxyphenoxy)phenyl)-1H-imidazo[4,5-c]pyridine-2(3H)-one], the IC50 was in the range of 10 to 100 nM. For `C=CC(=O)N1CC[C@@H](n2c(=O)n(-c3ccc(OCc4cccc(C(F)(F)F)c4)c(Cl)c3)c3cnccc32)C1` [Example 200, (R)-1-(1-acryloylpyrrolidin-3-yl)-3-(3-chloro-4-((3-(trifluoromethyl)benzyl)oxy)phenyl)-1H-imidazo[4,5-c]pyridine-2(3H)-one] the value was 100 to 1000 nM. Next, `C=CC(=O)Nc1cccc(-n2c(=O)n(-c3ccc(Oc4cc(F)cc(Cl)c4)cc3)c3cnccc32)c1` [Example 129, N-(3-(3-(4-(3-chloro-5-fluorophenoxy)phenyl)-2-oxo-2,3-dihydro-1H-imidazo[4,5-c]pyridin-1-yl)phenyl)acrylamide]: 100 to 1000 nM; `C=CC(=O)Nc1cccc(-n2c(=O)n(-c3cccc(Oc4cccc(C)c4)c3)c3cnccc32)c1` [Example 152, N-(3-(2-oxo-3-(3-(m-tolyloxy)phenyl)-2,3-dihydro-1H-imidazo[4,5-c]pyridin-1-yl)phenyl)acrylamide]: 10 to 100 nM; `C=CC(=O)Nc1cccc(-n2c(=O)n(-c3ccc(Oc4cccc(OC(C)C)c4)cc3)c3cnccc32)c1` [Example 85, N-(3-(3-(4-(3-isopropoxyphenoxy)phenyl)-2-oxo-2,3-dihydro-1H-imidazo[4,5-c]pyridin-1-yl)phenyl)acrylamide]: 10 to 100 nM.

Turning to `C=CC(=O)Nc1cccc(-n2c(=O)n(-c3ccc(Oc4ccccc4)cc3)c3cccnc32)c1` [Example 116, N-(3-(2-oxo-1-(4-phenoxyphenyl)-1H-imidazo[4,5-b]pyridin-3(2H)-yl)phenyl)acrylamide], the IC50 was in the range of 100 to 1000 nM.

Take `C=CC(=O)N1CC[C@H](n2c(=O)n(-c3ccc(Oc4ccccc4)cc3)c3/c(=N/O)[nH]cnc32)C1` [Example 177, (S,Z)-9-(1-acryloylpyrrolidin-3-yl)-6-(hydroxyimino)-7-(4-phenoxyphenyl)-7,9-dihydro-1H-purin-8(6H)-one]: the IC50 fell in the range of 100 to 1000 nM. For `C=CC(=O)Nc1cccc(-n2c(=O)n(-c3ccc(Oc4ccc(Cl)c(F)c4)cc3)c3cnccc32)c1` [Example 160, N-(3-(3-(4-(4-chloro-3-fluorophenoxy)phenyl)-2-oxo-2,3-dihydro-1H-imidazo[4,5-c]pyridin-1-yl)phenyl)acrylamide], the IC50 was 100 to 1000 nM. Next, `C=CC(=O)N1CC[C@@H](n2c(=O)n(-c3ccc(Oc4ccccc4)cc3)c3cncc(C)c32)C1` [Example 176, (R)-1-(1-acryloylpyrrolidin-3-yl)-7-methyl-3-(4-phenoxyphenyl)-1H-imidazo[4,5-c]pyridin-2(3H)-one]: not above 10 nM; `C=CC(=O)N1CCC(n2c(=O)n(-c3ccc(Oc4cccc(OC)c4)c(C)c3)c3cnccc32)C1` (centres unmarked) [Example 92, 1-(1-acryloylpyrrolidin-3-yl)-3-(4-(3-methoxyphenoxy)-3-methylphenyl)-1,3-dihydro-2H-imidazo[4,5-c]pyridin-2-one]: 10 to 100 nM; `C=CC(=O)N1CC[C@H](n2c(=O)n(-c3ccc(NC(=O)c4ccc(C)c(C(F)(F)F)c4)cc3)c3cnccc32)C1` [Example 269, (S)-N-(4-(1-(1-acryloylpyrrolidin-3-yl)-2-oxo-1H-imidazo[4,5-c]pyridin-3(2H)-yl)phenyl)-4-methyl-3-(trifluoromethyl)benzamide]: 100 to 1000 nM. Next, `C=CC(=O)N1CC[C@@H](n2c(=O)n(-c3ccc(Oc4cccc(Cl)c4C)cc3)c3cnccc32)C1` [Example 139, (R)-1-(1-acryloylpyrrolidin-3-yl)-3-(4-(3-chloro-2-methylphenoxy)phenyl)-1H-imidazo[4,5-c]pyridin-2(3H)-one]: 10 to 100 nM; `C=CC(=O)Nc1cccc(-n2c(=O)n(-c3ccc(OCc4ccccc4C)cc3)c3cnccc32)c1` [Example 225, N-(3-(3-(4-((2-methylbenzyl)oxy)phenyl)-2-oxo-2,3-dihydro-1H-imidazo[4,5-c]pyridin-1-yl)phenyl)acrylamide]: 100 to 1000 nM; `C=CC(=O)N1CCC[C@@H](n2c(=O)n(-c3ccc(Oc4ccccc4)c(F)c3)c3cnccc32)C1` [Example 12, (R)-1-(1-acryloylpiperidin-3-yl)-3-(3-fluoro-4-phenoxyphenyl)-1H-imidazo[4,5-c]pyridin-2(3H)-one]: 10 to 100 nM. For `C=CC(=O)N1CCC[C@@H](n2c(=O)n(-c3ccc(Oc4cccc(C)c4F)cc3)c3cnccc32)C1` [Example 141, (R)-1-(1-acryloylpiperidin-3-yl)-3-(4-(2-fluoro-3-methylphenoxy)phenyl)-1H-imidazo[4,5-c]pyridin-2(3H)-one] the value was 10 to 100 nM; for `C=CC(=O)Nc1cccc(-n2c(=O)n(-c3ccc(Oc4cccc(C)c4)c(F)c3)c3cnccc32)c1` [Example 49, N-(3-(3-(3-fluoro-4-(m-tolyloxy)phenyl)-2-oxo-2,3-dihydro-1H-imidazo[4,5-c]pyridin-1-yl)phenyl)acrylamide], 10 to 100 nM.

Take `C=CC(=O)N1CCC[C@@H](n2c(=O)n(-c3ccc(Oc4ccccc4)cc3)c3ccncc32)C1` [Example 122, (R)-3-(1-acryloylpiperidin-3-yl)-1-(4-phenoxyphenyl)-1H-imidazo[4,5-c]pyridin-2(3H)-one]: the IC50 is 1000 to 10000 nM.

Turning to `C=CC(=O)N1CC[C@@H](n2c(=O)n(-c3ccc(Oc4ccc(C(F)(F)F)cc4)c(Cl)c3)c3cnccc32)C1` [Example 43, (R)-1-(1-acryloylpyrrolidin-3-yl)-3-(3-chloro-4-(4-(trifluoromethyl)phenoxy)phenyl)-1H-imidazo[4,5-c]pyridin-2(3H)-one], the IC50 was in the range of 100 to 1000 nM. For `C=CC(=O)Nc1cccc(-n2c(=O)n(-c3ccc(Oc4ccc(Cl)c(Cl)c4)cc3)c3cnccc32)c1` [Example 159, N-(3-(3-(4-(3,4-dichlorophenoxy)phenyl)-2-oxo-2,3-dihydro-1H-imidazo[4,5-c]pyridin-1-yl)phenyl)acrylamide] the value was 10 to 100 nM; for `C=CC(=O)Nc1cccc(-n2c(=O)n(-c3cccc(Oc4ccc(C)cc4)c3)c3cnccc32)c1` [Example 76, N-(3-(2-oxo-3-(3-(p-tolyloxy)phenyl)-2,3-dihydro-1H-imidazo[4,5-c]pyridin-1-yl)phenyl)acrylamide], 10 to 100 nM.

Regarding `C=CC(=O)Nc1cccc(-n2c(=O)n(-c3ccc(C(=O)NCc4cccc(OC)c4)cc3)c3cnccc32)c1` [Example 252, 4-(1-(3-acrylamidophenyl)-2-oxo-1H-imidazo[4,5-c]pyridin-3(2H)-yl)-N-(3-methoxybenzyl)benzamide], the IC50 lay in the range of 100 to 1000 nM. As for `C=CC(=O)Nc1cccc(-n2c(=O)n(-c3ccc(Oc4ccc(C(F)(F)F)cc4)cc3)c3cnccc32)c1` [Example 123, N-(3-(2-oxo-3-(4-(4-(trifluoromethyl)phenoxy)phenyl)-2,3-dihydro-1H-imidazo[4,5-c]pyridin-1-yl)phenyl)acrylamide], the IC50 was not below 10000 nM.

`C=CC(=O)N1CC[C@@H](n2c(=O)n(-c3ccc(Oc4cccc(Cl)c4)c(F)c3)c3cnccc32)C1` [Example 149, (R)-1-(1-acryloylpyrrolidin-3-yl)-3-(4-(3-chlorophenoxy)-3-fluorophenyl)-1H-imidazo[4,5-c]pyridin-2(3H)-one]: the IC50 lay within 10 to 100 nM.
